Results: patent US11400058B2, “Intravenous formulations of coenzyme Q10 (CoQ10) and methods of use thereof” (Berg LLC, priority 2010, dated 2022)
Where two headings read alike, the source gives them in different places.

Assays:
[1] = beagle, dog, in vivo, iv
Description: In the second dog toxicity study, Charles River Study Number 20000334, CoQ10 IV Formulation was administered as short intravenous infusions at the rate of 5.0 mL/min three times a week for four weeks.
An additional two dogs/sex were included in each group and maintained for a 2-week recovery after treatment. A single test article concentration of 40 mg/mL was provided for use on the study. […] Parameters evaluated included cageside observations, clinical observations, body weight, food consumption, ophthalmoscopy, electrocardiography, clinical pathology, gross pathology, organ weights, and histopathology. Blood samples for determination of the plasma concentrations of CoQ10 IV Formulation were collected pre-dose and at 5, 15, 30 and 60 minutes and at 2, 4, 8 and 24 hours post-dose on Days 1 and 26.

[2] = Sprague Dawley, rat, in vivo, iv
Description: In the second rat toxicity study, Charles River Study Number 20000328, CoQ10 was administered as short intravenous infusions at the rate of 1.0 mL/min three times a week for four weeks. For the toxicokinetic evaluation, three groups of nine male and nine females received 62.5, 125, and 250 mg/kg CoQ10 IV Formulation (Table 20). On Days 1 and 26, samples were collected from subgroups of three males and three females at 5 and 15 minutes, and at 1, 4, 24 and 48 hr post-dose.
4-Week Repeat-Dose Toxicology Study of CoQ10 IV Formulation In Rats: Four groups of young adult Sprague Dawley rats (n=10/sex/group) received the vehicle (PBS containing Poloxamer 188 and DMPC) or the test article at doses of 0, 62.5, 125 and 250 mg/kg by IV injection three times per week (Charles River Laboratories Study Number 20000328; Table 26). An additional 5 rats/sex were included in each group and were maintained after treatment for a 2-week recovery period. […] The vehicle was administered at the same dose volume as the high-dose group. Additionally, three groups of 9 animals/sex served as toxicokinetic (TK) animals and received the test article in the same manner as the main study groups. […] Blood samples for determination of the plasma concentrations of the test article were collected from cohorts of three TK animals per sex per dose group at 5, 15 and 60 minutes and at 4, 24 and 48 hours after dosing on Days 1 and 28 (after the last dose).

[3] = Non-GLP four-week toxicity/toxicokinetic study in macaques (Mannheimer Foundation Study 2010-01); type: in vivo, sub-adult male macaques; settings: for Tmax: male, macaque, plasma, macaques
Excerpt: Plasma samples for toxicokinetic analysis were collected pre-dose, and at 0.25, 1, 6, 24, and 48 hr postdose on the first day of dosing. Pre-dose, but no post-dose samples were collected on Days 7, 14, 21 and 29. […] The increases for Cmax were slightly greater than directly dose-proportional. The increases for AUC0-t were apparently substantially greater than directly dose-proportional, but the nonlinearity may be in part a reflection of the sampling schedule.

Caspase 3 in HDFa cells = test: Western blot for Caspase 3 protein; type: cell-based; settings: 24 hours
Description: For the oxygen consumption rate assay, the oxygen consumption rates in the cell lines was determined using the Seahorse apparatus. The caspase 3 activity was determined using a colorimetric method using a commercially available kit according to manufacturer's instructions. The increase in the expression of Caspase 3 as a measure of apoptosis was determined by western blotting analysis using an antibody specific for detection of Caspase 3 protein.
Caspase 3 levels were determined in various cell lines following treatment with the same two CoQ10 N formulations as used above (the first formulation included 4% CoQ10; 3% DMPC; and 93% water, and the second formulation included 4% CoQ10; 3% DMPC; 1.5% Poloxamer P188; and 91.5% water). Specifically, PC-3, HepG2, MCF-7, HDFa and MIAPACA2 cells were treated with the CoQ10 IV formulation and harvested after 24 hours of treatment. The whole cell pellets of these cells were used for Western Blots. Sample volumes equivalent to 10 μg of protein were prepared with Lamelli Loading Dye (LDS) and water and run on a 4-12% Bis-Tris Novel NuPAGE gel on two 10 lane gels (15 μL loaded per lane) as detailed below. […]

MCF-7 = test: Effect on Bcl-2 family, p53 and caspases in breast cancer cells; type: cell-based; settings: MCF-7, 50 and 100 μM
Description: (§1) Effect of CoQ10 on Breast Cancer: In another in vitro study, the effect of CoQ10 (50 and 100 μM) on various members of the Bcl-2 family (bcl-2, bcl-xl, bid, bad, bak, mcl-1, bim, and bax), p53, and caspases 4, 8, 12 in two breast cancer cell lines, MCF-7 and Sk-BR3, was evaluated. The Bcl-2 protein family has been implicated as the major contributing factor to conferral of resistance to cancer therapy.

Sk-BR3 = test: as above; type: cell-based; settings: Sk-BR3, 50 and 100 μM
Description: as §1

Compound `COC1=C(OC)C(=O)C(C/C=C(\C)CC/C=C(\C)CC/C=C(\C)CC/C=C(\C)CC/C=C(\C)CC/C=C(\C)CC/C=C(\C)CC/C=C(\C)CC/C=C(\C)CCC=C(C)C)=C(C)C1=O` [CoQ10, Coenzyme Q10] has an AUC0-t ([1]; female, 31.25 mg/kg) of 1207 µg·h/mL, an AUC0-t ([1]; female, 62.5 mg/kg) of 2735 µg·h/mL and an AUC0-t ([1]; female, 125 mg/kg) of 7370 µg·h/mL. For the same compound, the AUC0-t ([1]; male, 31.25 mg/kg) was 1038 µg·h/mL, the AUC0-t ([1]; male, 62.5 mg/kg) was 2719 µg·h/mL and the AUC0-t ([1]; male, 125 mg/kg) was 7151 µg·h/mL. For the same compound, the AUC0-t ([2]; female, 62.5 mg/kg) was 1747 µg·h/mL, the AUC0-t ([2]; female, 125 mg/kg) was 3859 µg·h/mL and the AUC0-t ([2]; female, 250 mg/kg) was 8368 µg·h/mL. The AUC0-t ([2]; male, 62.5 mg/kg) was 1953 µg·h/mL, the AUC0-t ([2]; male, 125 mg/kg) was 5037 µg·h/mL and the AUC0-t ([2]; male, 250 mg/kg) was 8873 µg·h/mL. The “Cmax and AUC0-t versus dose” value ([3]; macaques, 31.25, 62.5, 125 mg/kg IV, preliminary results) was “increased with increasing dose”, the Tmax ([3]; intravenous, one animal) was 60 min and the Tmax ([3]; 31.25-125 mg/kg IV, first day of dosing) was 15 min. For the same compound, the “intensity of Caspase 3 lower band” value (Caspase 3 in HDFa cells) was “decreased”, the “apoptosis (activation of caspase 3, 6 and 9)” value (MCF-7) was “increased apoptosis” and the “levels of the anti-apoptotic members (bcl-xl, mcl-1, bcl-2)” value (MCF-7) was “significantly decreased”. For the same compound, the “protein expression of pro-apoptotic members and BH3 subfamily members (bid, bad, bax, bim, bak)” value (MCF-7) was “upregulated”, the “apoptosis (activation of caspase 3, 6 and 9)” value (Sk-BR3) was “increased apoptosis” and the “levels of the anti-apoptotic members (bcl-xl, mcl-1, bcl-2)” value (Sk-BR3) was “significantly decreased”. The “protein expression of pro-apoptotic members and BH3 subfamily members (bid, bad, bax, bim, bak)” value (Sk-BR3) was “upregulated”.
